We go through 5 molecules from patent US20070224674A1, “Selective Enrichiment of Microorganisms for Desired Metabolic Properties” (COMMONWEALTH SCIENTIFIC AND INDUSTRIAL RESEARCH OR, priority 2003, published 2007).

One data set relates to Isolate 1B. The experiment in a line: Dodecane degradation in liquid batch culture. Format: cell-based. The note with it: for Residual dodecane concentration: 0.75 g l^−1 added. As to the method:
(§1) The ability of the pure isolates to grow on dodecane as the sole source of carbon in liquid culture was also evaluated and is shown in Table 5. The cultures were grown in 50 ml screw-capped plastic tubes that contained 10 ml of defined medium and 0.75 g l^−1 dodecane. To ensure each culture was inoculated with a consistent number of cells, 10 ml of medium was inoculated with 100 μl of a single colony that had been resuspended in 1 ml of DM. The cultures were incubated at 30° C. shaking at 190 rpm. Residual dodecane was extracted by the addition of 20 ml of hexane to a single 10 ml culture at each time point. The tube was shaken vigorously for one minute and after phase separation, the upper layer was kept for determination of the dodecane concentration. The dodecane concentrations were estimated using gas chromatography.

The subject of a further data set is Isolate 1C. The experiment in a line: Dodecane degradation in liquid batch culture. The data set is classed as cell-based. As to conditions: for Residual dodecane concentration: 0.75 g l^−1 added. Here is the method:
as §1

The test system of the next data set is Isolate 1D. The experiment in a line: Dodecane degradation in liquid batch culture. The data set is classed as cell-based. The note with it: for Residual dodecane concentration: 0.75 g l^−1 added. As to the method:
as §1

The conditions of data set [1]: stated in words; cited from earlier work.
For another data set, the system named is Isolate 2A. The experiment in a line: 1-methyl-2-pyrrolidinone degradation in liquid batch culture. The data set is classed as cell-based. As to conditions: for Residual 1-methyl-2-pyrrolidinone concentration: 1.0 g l^−1 added. As to the method:
(§2) The ability of the pure isolates to grow on 1-methyl-2-pyrrolidinone as the sole source of carbon in liquid culture was also evaluated (Table 3). The cultures were grown in 50 ml screw-capped plastic tubes that contained 10 ml of defined medium and 1.0 g l^−1 1-methyl-2-pyrrolidinone. To ensure each culture was inoculated with a consistent number of cells, 10 ml of medium was seeded with 100 μl of a single colony that had been resuspended in 1 ml of DM. The cultures were incubated at 30° C. shaking at 190 rpm. A single 10 ml culture was harvested by centrifugation at each time point and the supernatant kept for determination of the 1-methyl-2-pyrrolidinone concentration. The 1-methyl-2-pyrrolidinone concentrations were estimated using gas chromatography

The next data set has as its system Isolate 2B. The data set is described as above. Format: cell-based. As to conditions: for Residual 1-methyl-2-pyrrolidinone concentration: 1.0 g l^−1 added. As to the method:
as §2

The test system of data set [2] is microorganisms from activated sludge. The experiment in a line: Enrichment of activated sludge on 1-methyl-2-pyrrolidinone, growth from BOD. Format: cell-based. The note with it: 30° C., pH 7.0. As to the method: Fresh activated sludge sourced from a wastewater treatment facility was used as the source of microorganisms for enrichment of 1-methyl-2-pyrrolidinone-utilising microbes. […] The enrichment process was performed at 30° C. and pH 7.0 (the pH was maintained at 7.0 by the automatic addition of a potassium hydroxide or hydrochloric acid solution as the alkali and acid, respectively). The feed flow rate was 60 ml h^−1.
After the addition of the activated sludge to a vessel the BOD was high (greater than 500 mg l^−1). […] After 2 ml of 1-methyl-2-pyrrolidinone was added to the vessel (Arrow A; FIG. 8) a rapid rise in BOD was observed indicating exponential growth (FIG. 8). […] Growth is exponential between 1220 and 1460 minutes and μmax can therefore be calculated as 0.52 h^−1, which corresponds to a doubling time of 1.34 hours. The rapid decline in BOD (Arrow B, FIG. 8) was due to the oxygen consumption of the microbial population being greater than the amount of oxygen supplied to the culture.

The test system of data set [3] is E. coli and P. putida continuous culture. The experiment in a line: Continuous culture population shift, residual substrate by gas chromatography. Format: cell-based, Escherichia coli BL21DE3, Pseudomonas putida F1. As to conditions: when BOD stabilised after addition of P. putida; feed 1.0 g l^−1 benzyl alcohol and 0.5 g l^−1 glucose, 30 ml h^−1. As to the method:
Based on the BOD it was clear that steady state had been attained (it is generally assumed that steady state has been established after turnover of at least three vessel volumes which, in this example would occur after 37.5 hours). After 125.7 hours (equivalent to 10 vessel volumes) of continuous operation, P. putida was added to the culture. Initially, there was no change in the BOD so to ensure P. putida was not being washed out of the vessel the feed flow rate was reduced from 60 ml h^−1 to 30 ml h^−1. […] This observation was confirmed by measuring the residual benzyl alcohol in the culture supernatant, which had started to decrease. As the P. putida population developed the BOD increased, peaking initially at nearly 1400 mg l^−1 before declining to 1050 mg l^−1 after which a second peak in the BOD was observed. […] After the second BOD peak, the BOD stabilised at 1040 mg l^−1 which was the expected BOD for a feed containing 0.5 g l^−1 glucose and 1.0 g l^−1 benzyl alcohol (see calculation below).
The feed consisting of DM containing 0.5 g l^−1 glucose and 1.0 g l^−1 benzyl alcohol was fed into a vessel at 30° C. and pH 7. The feed flow rate was initially 60 ml h^−1. […] At the same time that the BOD stabilised the measured residual benzyl alcohol concentration was zero. […]

For the next data set, the system named is E. coli. The experiment in a line: Growth on glucose and benzyl alcohol in defined medium, batch culture. Format: cell-based, Escherichia coli BL21DE3. Here is the method:
(§3) For these control experiments a steady state culture of an Escherichia coli BL21DE3 which was supplied by Novagen (Novagen Inc., Madison, Wis., USA) and was expected to grow on glucose only was used. The culture was established using 5 ml of an E. coli culture taken from a 100 ml shake flask culture which had been grown for 17 hours shaking at 200 rpm and 30° C. in defined medium with 1.0 g l^−1 glucose as the carbon source. Although the feed contained another substrate (benzyl alcohol), no growth on this substrate was expected because this microbial population was known to be unable to use this carbon source for growth. When steady state had been established, 10 mL of a 100 mL shake flask culture of Pseudomonas putida F1 was added. The P. putida F1 culture had been grown at 30° C. for 17 hours, with shaking at 200 rpm, in defined medium with 1.0 g l^−1 glucose as the carbon source. The P. putida F1 was supplied by the American Type Culture Collection (ATCC) and was expected to grow on benzyl alcohol and/or glucose. The OUR was expected to change as a result of the increased microbial activity after the addition of P. putida.
(§4) The success of this control experiment was dependent upon the ability of E. coli to grow on glucose in DM and grow in DM in the presence of benzyl alcohol (i.e. benzyl alcohol is not toxic to E. coli). Also of key importance was the inability of E. coli to grow on benzyl alcohol. […] Although P. putida is well known for its ability to grow on a wide range of aromatic substrates (Wackett, & Hershberger, 2001), growth on benzyl alcohol has not been reported. The optical density at inoculation was calculated (based upon the optical density on the inocula) as 0.021 (E. coli) and 0.026 (P. putida). The cultures were incubated shaking at 200 rpm and 30° C. The optical density was measured at 600 nm after incubation for 23.5 and 75 hours.

Another data set concerns P. putida. The data set is described as above. The data set is classed as cell-based, Pseudomonas putida F1. Here is the method:
as §3, §4

The test system of data set [4] is 1,3-propanediol-degrading microbial population (activated sludge). The experiment in a line: Enrichment of activated sludge on 1,3-propanediol, growth from BOD. The data set is classed as cell-based. Here is the method: Isolation of 1,3-propanediol-degrading microorganisms was used to test the feedback loop between feed flow rate and OUR. The feed medium was a defined medium designated 461S (Appendix I) which contained 1.0 g l^−1 1,3-propanediol and the initial flow rate was 43.5 ml h^−1. The operating temperature was 30° C. and pH 7.0. The medium was inoculated with ˜700 ml of activated sludge. The feed flow rate was increased by 20 ml h^−1 if the BOD remained constant for four vessel volumes. After an initial peak in the BOD, which was due to 1,3-propanediol being in excess, the BOD remained constant over a range of flow rates. […] This observation was expected because the inferred μmax of the population from the initial peak in BOD at the start of the experiment was ˜0.25 h^−1 (a doubling time of 2.8 hours). […] could be achieved with any microbial population that is established in the culture because there is a good probability that mutants which can grow at a higher rate will be selected at high feed flow rates.

The mark [5] stands for this setting: batch culture, over a 168 hours period.
The mark [6] stands for this setting: benzyl alcohol 1.0 g l^−1 only carbon source, 23.5 hours.
[7] abbreviates: benzyl alcohol 1.0 g l^−1 only carbon source, 75 hours.
Setting [8] is: benzyl alcohol 1.0 g l^−1 with glucose 0.1 g l^−1, 23.5 hours.
[9] abbreviates: benzyl alcohol 1.0 g l^−1 with glucose 0.1 g l^−1, 75 hours.
Setting [10] is: glucose 0.1 g l^−1 only carbon source, 23.5 hours incubation, 30° C.
Setting [11] is: glucose 0.1 g l^−1 only carbon source, 75 hours incubation, 30° C.

Molecules are shown by their SMILES.

For the molecule `CCCCCCCCCCCC` [dodecane], the Residual dodecane concentration with Isolate 1B (24 h after inoculation) was 920 mg/L; in the data set with Isolate 1B (48 h after inoculation) it was 160 mg/L; in the data set with Isolate 1B (72 h after inoculation), 420 mg/L; with Isolate 1B (96 h after inoculation) it was 270 mg/L; in the data set with Isolate 1B (168 h after inoculation), 290 mg/L; in the data set on Isolate 1C (24 h after inoculation), 630 mg/L. Further, the Residual dodecane concentration in the data set with Isolate 1C (48 h after inoculation) is 620 mg/L; with Isolate 1C (72 h after inoculation), 440 mg/L; in the data set with Isolate 1C (96 h after inoculation), 440 mg/L; in the data set with Isolate 1C (168 h after inoculation), 280 mg/L; in the data set with Isolate 1D (24 h after inoculation) it was 1080 mg/L; with Isolate 1D (48 h after inoculation) it was 920 mg/L. Moreover, the Residual dodecane concentration in the data set on Isolate 1D (72 h after inoculation) was 740 mg/L; in the data set with Isolate 1D (96 h after inoculation) it was 410 mg/L; with Isolate 1D (168 h after inoculation), 310 mg/L. Also, the “Dodecane added to the culture that was used” value with Isolate 1B (setting [5]), in the data set with Isolate 1C (setting [5]) and in the data set with Isolate 1D (setting [5]) was 50 to 60% throughout. For the same molecule, in data set [1], the Solubility in water entry is “practically insoluble in water”.

`CN1CCCC1=O` [1-methyl-2-pyrrolidinone]: the “Residual 1-methyl-2-pyrrolidinone concentration” value with Isolate 2A (24 h after inoculation) is listed as “NDa (Not detected (limit of detection · 20 mg l^−1))”; in the data set with Isolate 2A (48 h after inoculation), “ND (Not detected (limit of detection · 20 mg l^−1))”; with Isolate 2A (72 h after inoculation) it was “ND (Not detected (limit of detection · 20 mg l^−1))”; in the data set on Isolate 2A (96 h after inoculation) it was “ND (Not detected (limit of detection · 20 mg l^−1))”; with Isolate 2A (168 h after inoculation), “ND (Not detected (limit of detection · 20 mg l^−1))”; in the data set on Isolate 2B (24 h after inoculation), “ND (Not detected (limit of detection · 20 mg l^−1))”. In addition, the “Residual 1-methyl-2-pyrrolidinone concentration” value with Isolate 2B (48 h after inoculation), in the data set with Isolate 2B (72 h after inoculation), in the data set on Isolate 2B (96 h after inoculation) and in the data set on Isolate 2B (168 h after inoculation) was “ND (Not detected (limit of detection · 20 mg l^−1))” throughout. Also, the “Time to completely degrade 1.0 g l^−1 1-methyl-2-pyrrolidinone” value in the data set with Isolate 2A (batch culture) and in the data set with Isolate 2B (batch culture) was no more than 24 h throughout. Further, the Solubility in water entry in data set [1] is “soluble in water”. The “μmax of the population growing on the substrate” value in data set [2] (calculated from exponential BOD rise between 1220 and 1460 minutes) was 0.52 h⁻¹. In data set [2] (corresponds to μmax), this molecule yielded a Doubling time of 1.34 h.

For the molecule `OCc1ccccc1` [Benzyl alcohol, benzyl alcohol], the “Residual benzyl alcohol concentration” value in data set [3] is listed as “zero”. The “Optical density at 600 nm” value with E. coli (setting [6]) was 0.027; with E. coli (setting [7]) it was 0.024; in the data set on E. coli (setting [8]) it was 0.102; with E. coli (setting [9]), 0.097; in the data set on P. putida (setting [6]), 0.021; in the data set on P. putida (setting [7]), 0.417. The “Optical density at 600 nm” value in the data set with P. putida (setting [8]) is given as 0.042; with P. putida (setting [9]) it was 0.353.

On to `O=C[C@H](O)[C@@H](O)[C@H](O)[C@H](O)CO` [Glucose, glucose], for which the “Optical density at 600 nm” value with E. coli (setting [10]) is recorded as 0.116; with E. coli (setting [11]) it was 0.102; in the data set on P. putida (setting [10]), 0.170; with P. putida (setting [11]), 0.138.

In [4] (corresponds to inferred μmax), `OCCCO` [1,3-propanediol] displayed a Doubling time of 2.8 h. Besides, the “Inferred μmax of the population” value in data set [4] (from the initial peak in BOD, 1.0 g l^−1 in feed, 30° C., pH 7.0) was roughly 0.25 h⁻¹.
